Laboratory results as given in patent US20030106085A1, “Disruption of the prostaglandin E synthase 2 gene” (Pfizer Inc., priority 2001, published 2003).

Assays:
[1] = tested on: PGES2 KO clone #22F ES cell-derived macrophages; assay: Rescue of wild type phenotype (cell density) in PGES2 KO ES cell-derived macrophages by PGE2 added to the media; assay type: cell-based, murine
Protocol: DBA-252 WT (+/+) and PGES KO (−/−) ES cell clones #22D, #22F and #70V were used to develop ES cell in vitro differentiated (IVD) macrophages. WT and KO PGES2 ES cell clones were maintained without PEF feeders in SCML. Two days prior to embryoid body (EB) formation, all ES cell lines were switched to l-SCML medium that contained a base medium of Iscove's MDM (ILTI, #31980-030) supplemented with 15% ES cell qualified fetal calf serum, 0.2 mM L-glutamine, 0.1 mM MEM non-essential amino acids, 1000 u/ml recombinant murine leukemia inhibitory factor, 50 μg/ml Gentamycin and 0.1 mM 2-Mercaptoethanol (Sigma #M-7522).
Embryoid body stage: The WT and KO ES cell clones were dissociated and grown in suspension culture in bacteriology 100 mm dishes in MacEB medium that contained the base medium Iscove's MDM supplemented with 15% ES cell qualified fetal calf serum, 2 mM L-glutamine, 300 μg transferrin (ILTI, #13008-016), 50 μg/ml L-ascorbic acid (Sigma Chemical, #A-4403), 5% PFHM-II (ILTI, #12040-093), 4×10^−4 M monothioglycerol (MTG), and 50 μg/ml Gentamycin. ES cells were grown in suspension for 6 days to form the EB cell aggregates.
Precursor macrophage stage: The EBs were dissociated on day 6 and plated in tissue culture dishes in Mac I medium that contained the base medium Iscove's MDM supplemented with 10% FBS (ILTI, #10439-024), 5% PFHM-II (ILTI, #12040-093), 2 mM L-glutamine, 3 ng/ml M-CSF (Sigma #M-9170), 1 ng/ml IL-3 (PeproTech, Inc., Rocky Hill, N.J., #213-13) and 50 μg/ml Gentamycin. When this cell population became confluent, the macrophage precursors developed as non-adherent clusters and could be harvested every other day from day 14 through day 30.
ES cell-derived macrophages: Non-adherent clusters of macrophage precursors were harvested from the media by centrifugation. Cell pellets were resuspended in Mac II media that contained the base medium Iscove's MDM supplemented with 10% FBS, 5% PFHM-II, 2 mM L-glutamine, 3 ng/ml M-CSF, and 50 μg/ml Gentamycin. […]

[2] = tested on: PGES2 KO and wild type mice; assay: Acetic acid-induced writhing (acute inflammation/pain model); assay type: in vivo; settings: 10 mg/kg orally, one hour before 0.7% acetic acid i.p., vs vehicle
Protocol: PGES2 KO mice were profiled in two experimental models of inflammation, collagen-induced arthritis (chronic inflammation model) and acetic acid-induced writhing (acute inflammation/pain model). All experiments were performed with age/sex-matched animals propagated on a DBA1/lacJ genetic background. This genetic background is optimal for collagen-induced arthritis (CIA). The phenotype in CIA was further profiled by characterizing the immune responses of PGES2 KO and wild type animals by assessing antibody production and delayed-type hypersensitivity reactions. In summary, results of the CIA and acetic acid-induced writhing models indicate a role for PGES2 in PGE2-mediated chronic inflammation, acute inflammation, and acute inflammatory pain detection as opposed to neuropathic pain detection. Mice were randomized and dosed orally with either vehicle (0.5% (w/w) methylcellulose, Sigma Chemical, #M0512) or 10 mg/kg piroxicam (Sigma Chemical, #P5654). One hour later, 16 μl/g body weight of 0.7% acetic acid was administered intraperitoneally. The mice were placed in a 5-compartment box and the number of stretches was counted for 20 minutes following acetic acid injection.

Structure (SMILES)	macrophage density ([1]; PGES2 KO clone 22F macrophages cultured in 10.0 μM PGE2, added at all stages of differentiation)	macrophage density compared to wild type ([1]; PGES2 KO clone #22F macrophages cultured in 0.1 μM PGE2, added at all stages of differentiation)	macrophage density compared to wild type ([1]; PGES2 KO clone #22F macrophages cultured in 1.0 μM PGE2, added at all stages of differentiation)	pain response (number of stretches counted for 20 minutes following acetic acid injection) ([2]; PGES2 KO mice)	pain response (number of stretches counted for 20 minutes following acetic acid injection) ([2]; wild type mice)
CCCCC[C@H](O)/C=C/[C@H]1[C@H](O)CC(=O)[C@@H]1C/C=C\CCCC(=O)O [PGE2, Prostaglandin E2]	approximately 75 % of wild type	equivalent in density to wild type	equivalent in density to wild type	–	–
CN1C(C(=O)Nc2ccccn2)=C(O)c2ccccc2S1(=O)=O [piroxicam]	–	–	–	had no effect	reduced the response
